# Columns and labels:
# [1] = Growth inhibition of human HBC5 cells after 48 hrs by SRB assay; format: functional; conditions: HBC5, 48 h
# NCI-H460 = experiment: Growth inhibition of human NCI-H460 cells after 48 hrs by SRB assay; format: functional; conditions: NCI-H460, 48 h
# OVCAR-4 = experiment: Growth inhibition of human OVCAR4 cells after 48 hrs by SRB assay; format: functional; conditions: OVCAR-4, 48 h
# St-4 = experiment: Growth inhibition of human St-4 cells after 48 hrs by SRB assay; format: functional; conditions: St-4, 48 h
# DU-145 = experiment: Growth inhibition of human DU145 cells after 48 hrs by SRB assay; format: functional; conditions: DU-145, 48 h
# NCI-H23 = experiment: Growth inhibition of human NCI-H23 cells after 48 hrs by SRB assay; format: functional; conditions: NCI-H23, 48 h
# MKN-28 = experiment: Growth inhibition of human MKN28 cells after 48 hrs by SRB assay; format: functional; conditions: MKN-28, 48 h
# [2] = Reversal of multidrug resistance in human 2780AD cells assessed as [3H]vincristine accumulation at 1 ug/mL after 2 hrs relative to verapamil; format: functional, A2780 ADR
# [3] = Reversal of multidrug resistance in human 2780AD cells assessed as [3H]vincristine accumulation at 10 ug/mL after 2 hrs relative to verapamil; format: functional, A2780 ADR
# DMS-273 = experiment: Growth inhibition of human DMS273 cells after 48 hrs by SRB assay; format: functional; conditions: DMS-273, 48 h
# MKN-7 = experiment: Growth inhibition of human MKN7 cells after 48 hrs by SRB assay; format: functional; conditions: MKN-7, 48 h
# NCI-H522 = experiment: Growth inhibition of human NCI-H522 cells after 48 hrs by SRB assay; format: functional; conditions: NCI-H522, 48 h
# [4] = Growth inhibition of human RXF631L cells after 48 hrs by SRB assay; format: functional; conditions: RXF 631, 48 h
# PC-3 = experiment: Growth inhibition of human PC3 cells after 48 hrs by SRB assay; format: functional; conditions: PC-3, 48 h
# DMS-114 = experiment: Growth inhibition of human DMS114 cells after 48 hrs by SRB assay; format: functional; conditions: DMS-114, 48 h
# HCT-15 = experiment: Growth inhibition of human HCT15 cells after 48 hrs by SRB assay; format: functional; conditions: HCT-15, 48 h
# HCT-116 = experiment: Growth inhibition of human HCT116 cells after 48 hrs by SRB assay; format: functional; conditions: HCT-116, 48 h
# [5] = Growth inhibition of human BSY1 cells after 48 hrs by SRB assay; format: functional; conditions: BSY-1, 48 h
# NCI-H226 = experiment: Growth inhibition of human NCI-H226 cells after 48 hrs by SRB assay; format: functional; conditions: NCI-H226, 48 h
# OVCAR-3 = experiment: Growth inhibition of human OVCAR-3 cells after 48 hrs by SRB assay; format: functional; conditions: OVCAR-3, 48 h
# HT-29 = experiment: Growth inhibition of human HT-29 cells after 48 hrs by SRB assay; format: functional; conditions: HT-29, 48 h
# MDA-MB-231 = experiment: Growth inhibition of human MDA-MB-231 cells after 48 hrs by SRB assay; format: functional; conditions: MDA-MB-231, 48 h
# [6] = read-out: LC50 (the source's name)
# [7] = read-out: pLC50 (the source's name) (converted)
structure (smiles),measurement,setting,value
C=C1[C@@H](OC(C)=O)CC[C@@]2(C)C[C@H](OC(C)=O)C3=C(C)C[C@H](OC(=O)C(C)CC)[C@@H]([C@@H](OC(C)=O)[C@H]12)C3(C)C (stereo partly drawn),GI50,[1]; read-out: GI50,25 µM
same,CC50,[1]; [6],> 100 µM
same,TGI,[1]; read-out: TGI,> 100 µM
same,GI50,[1]; read-out: pGI50 (converted),25.1 µM
same,CC50,[1]; [7],100 µM
same,TGI,[1]; read-out: pTGI (converted),100 µM
same,GI50,NCI-H460; read-out: GI50,36 µM
same,CC50,NCI-H460; [6],> 100 µM
same,TGI,NCI-H460; read-out: TGI,> 100 µM
same,GI50,NCI-H460; read-out: pGI50 (converted),35.5 µM
same,TGI,NCI-H460; read-out: pTGI (converted),100 µM
same,GI50,OVCAR-4; read-out: GI50,21 µM
same,CC50,OVCAR-4; [6],> 100 µM
same,TGI,OVCAR-4; read-out: TGI,> 100 µM
same,GI50,OVCAR-4; read-out: pGI50 (converted),21.4 µM
same,CC50,OVCAR-4; [7],100 µM
same,TGI,OVCAR-4; read-out: pTGI (converted),100 µM
same,GI50,St-4; read-out: GI50,33 µM
same,CC50,St-4; [6],> 100 µM
same,TGI,St-4; read-out: TGI,> 100 µM
same,GI50,St-4; read-out: pGI50 (converted),33.1 µM
same,CC50,St-4; [7],100 µM
same,TGI,St-4; read-out: pTGI (converted),100 µM
same,GI50,DU-145; read-out: GI50,33 µM
same,CC50,DU-145; [6],> 100 µM
same,TGI,DU-145; read-out: TGI,> 100 µM
same,GI50,DU-145; read-out: pGI50 (converted),32.4 µM
same,CC50,DU-145; [7],100 µM
same,TGI,DU-145; read-out: pTGI (converted),100 µM
same,GI50,NCI-H23; read-out: GI50,23 µM
same,CC50,NCI-H23; [6],> 100 µM
same,TGI,NCI-H23; read-out: TGI,69 µM
same,GI50,NCI-H23; read-out: pGI50 (converted),22.9 µM
same,CC50,NCI-H23; [7],100 µM
same,TGI,NCI-H23; read-out: pTGI (converted),69.2 µM
same,GI50,MKN-28; read-out: GI50,31 µM
same,CC50,MKN-28; [6],> 100 µM
same,TGI,MKN-28; read-out: TGI,> 100 µM
same,GI50,MKN-28; read-out: pGI50 (converted),30.9 µM
same,CC50,MKN-28; read-out: pLC50 (converted),> 100 µM
same,TGI,MKN-28; read-out: pTGI (converted),100 µM
same,Activity,[2],123%
same,Activity,[3],132%
same,GI50,DMS-273; read-out: GI50,22 µM
same,CC50,DMS-273; [6],> 100 µM
same,TGI,DMS-273; read-out: TGI,> 100 µM
same,GI50,DMS-273; read-out: pGI50 (converted),22.4 µM
same,CC50,DMS-273; [7],100 µM
same,TGI,DMS-273; read-out: pTGI (converted),100 µM
same,GI50,MKN-7; read-out: GI50,18 µM
same,CC50,MKN-7; [6],> 100 µM
same,TGI,MKN-7; read-out: TGI,93 µM
same,GI50,MKN-7; read-out: pGI50 (converted),18.2 µM
same,CC50,MKN-7; [7],100 µM
same,TGI,MKN-7; read-out: pTGI (converted),93.3 µM
same,GI50,NCI-H522; read-out: GI50,15 µM
same,CC50,NCI-H522; [6],> 100 µM
same,TGI,NCI-H522; read-out: TGI,49 µM
same,GI50,NCI-H522; read-out: pGI50 (converted),24 µM
same,CC50,NCI-H522; [7],100 µM
same,TGI,NCI-H522; read-out: pTGI (converted),49 µM
same,GI50,[4]; read-out: GI50,25 µM
same,CC50,[4]; [6],> 100 µM
same,TGI,[4]; read-out: TGI,> 100 µM
same,GI50,[4]; read-out: pGI50 (converted),24.5 µM
same,CC50,[4]; [7],100 µM
same,TGI,[4]; read-out: pTGI (converted),100 µM
same,GI50,PC-3; read-out: GI50,20 µM
same,CC50,PC-3; [6],> 100 µM
same,TGI,PC-3; read-out: TGI,> 100 µM
same,GI50,PC-3; read-out: pGI50 (converted),20 µM
same,TGI,PC-3; read-out: pTGI (converted),100 µM
same,GI50,DMS-114; read-out: GI50,10 µM
same,CC50,DMS-114; [6],> 100 µM
same,TGI,DMS-114; read-out: TGI,57 µM
same,GI50,DMS-114; read-out: pGI50 (converted),10 µM
same,CC50,DMS-114; [7],100 µM
same,TGI,DMS-114; read-out: pTGI (converted),57.5 µM
same,GI50,HCT-15; read-out: GI50,32 µM
same,CC50,HCT-15; [6],> 100 µM
same,TGI,HCT-15; read-out: TGI,> 100 µM
same,GI50,HCT-15; read-out: pGI50 (converted),32.4 µM
same,CC50,HCT-15; read-out: pLC50 (converted),> 100 µM
same,TGI,HCT-15; read-out: pTGI (converted),100 µM
same,GI50,HCT-116; read-out: GI50,30 µM
same,CC50,HCT-116; [6],> 100 µM
same,TGI,HCT-116; read-out: TGI,> 100 µM
same,GI50,HCT-116; read-out: pGI50 (converted),30.2 µM
same,CC50,HCT-116; [7],100 µM
same,TGI,HCT-116; read-out: pTGI (converted),100 µM
same,GI50,[5]; read-out: GI50,30 µM
same,CC50,[5]; [6],> 100 µM
same,TGI,[5]; read-out: TGI,> 100 µM
same,GI50,[5]; read-out: pGI50 (converted),30.2 µM
same,TGI,[5]; read-out: pTGI (converted),100 µM
same,GI50,NCI-H226; read-out: GI50,32 µM
same,CC50,NCI-H226; [6],> 100 µM
same,TGI,NCI-H226; read-out: TGI,> 100 µM
same,GI50,NCI-H226; read-out: pGI50 (converted),32.4 µM
same,CC50,NCI-H226; [7],100 µM
same,TGI,NCI-H226; read-out: pTGI (converted),100 µM
same,GI50,OVCAR-3; read-out: GI50,21 µM
same,CC50,OVCAR-3; [6],> 100 µM
same,TGI,OVCAR-3; read-out: TGI,99 µM
same,GI50,OVCAR-3; read-out: pGI50 (converted),20.4 µM
same,CC50,OVCAR-3; read-out: pLC50 (converted),> 100 µM
same,TGI,OVCAR-3; read-out: pTGI (converted),100 µM
same,GI50,HT-29; read-out: GI50,28 µM
same,CC50,HT-29; [6],> 100 µM
same,TGI,HT-29; read-out: TGI,> 100 µM
same,GI50,HT-29; read-out: pGI50 (converted),27.5 µM
same,CC50,HT-29; read-out: pLC50 (converted),> 100 µM
same,TGI,HT-29; read-out: pTGI (converted),100 µM
same,GI50,MDA-MB-231; read-out: GI50,18 µM
same,CC50,MDA-MB-231; [6],> 100 µM
same,TGI,MDA-MB-231; read-out: TGI,> 100 µM
same,GI50,MDA-MB-231; read-out: pGI50 (converted),18.2 µM
same,TGI,MDA-MB-231; read-out: pTGI (converted),100 µM
